Measurements from BindingDB's records for doi:10.1021/jm0301033 (Florida A and M University, 2004).

Key:
D(3) dopamine receptor = D(3) dopamine receptor (Homo sapiens, UniProt P35462); test: Displacement of [3H]7-OH-DPAT from human Dopamine receptor D3
D(4) dopamine receptor = biological target: T1, D(4) dopamine receptor (Homo sapiens, UniProt P21917); test: Displacement of [3H]spiperone from human Dopamine receptor D4
T1 sequence (P21917 whole entry): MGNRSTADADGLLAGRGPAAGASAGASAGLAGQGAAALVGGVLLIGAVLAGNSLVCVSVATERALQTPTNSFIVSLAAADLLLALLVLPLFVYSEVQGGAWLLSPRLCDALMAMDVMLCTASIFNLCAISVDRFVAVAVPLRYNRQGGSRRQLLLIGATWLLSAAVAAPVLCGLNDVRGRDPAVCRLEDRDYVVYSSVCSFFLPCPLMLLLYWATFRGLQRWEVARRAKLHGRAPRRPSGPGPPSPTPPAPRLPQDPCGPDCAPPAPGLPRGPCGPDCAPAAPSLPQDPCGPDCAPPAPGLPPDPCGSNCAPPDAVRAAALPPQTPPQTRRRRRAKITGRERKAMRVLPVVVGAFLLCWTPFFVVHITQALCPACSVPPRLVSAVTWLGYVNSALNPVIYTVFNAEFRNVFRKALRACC

Chain of D(3) dopamine receptor (P35462 as listed by the source): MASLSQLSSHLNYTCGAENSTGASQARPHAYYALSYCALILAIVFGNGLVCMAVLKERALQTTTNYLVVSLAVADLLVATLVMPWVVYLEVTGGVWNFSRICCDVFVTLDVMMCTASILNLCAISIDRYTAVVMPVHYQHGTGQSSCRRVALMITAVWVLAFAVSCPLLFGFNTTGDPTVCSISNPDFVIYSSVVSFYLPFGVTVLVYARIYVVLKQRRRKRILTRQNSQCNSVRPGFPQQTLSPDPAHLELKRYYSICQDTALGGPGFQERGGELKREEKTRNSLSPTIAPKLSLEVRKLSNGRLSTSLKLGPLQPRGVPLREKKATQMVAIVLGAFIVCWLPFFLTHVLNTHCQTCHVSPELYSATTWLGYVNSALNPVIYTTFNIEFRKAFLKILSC

| Structure (SMILES) | pKi (D(3) dopamine receptor) | pKi (D(4) dopamine receptor) |
| --- | --- | --- |
| O=C(CCC[n+]1ccc(-c2ccc(Cl)cc2)cc1)c1ccc(F)cc1 | < 6 | < 6 |
| O=C(CCCN1CCC(C(O)c2ccc(Cl)cc2)CC1)c1ccc(F)cc1 (configuration not stated) | 7.11 | 6.91 |
| CN(CCCC(=O)c1ccc(F)cc1)CCCC(O)c1ccc(Cl)cc1 (configuration not stated) | 6.79 | 6.72 |
| O=C(CCCN1CCC(c2ccc(Cl)cc2)CC1)c1ccc(F)cc1 | 7.34 | 7.59 |

Further lines, results first:

| pKi (D(3) dopamine receptor) | pKi (D(4) dopamine receptor) | Structure (SMILES) |
| --- | --- | --- |
| 7.49 | 6.71 | O=C(CCCN1CCC(CCO)(c2ccc(Cl)cc2)C1)c1ccc(F)cc1 (configuration not stated) |
| 6.96 | 7.11 | O=C(CCCN1CCC(CO)(c2ccc(Cl)cc2)CC1)c1ccc(F)cc1 |
| 8.05 | 7.23 | O=C(CCCN1CCC(O)(Cc2ccc(Cl)cc2)CC1)c1ccc(F)cc1 |
| 6.78 | 7.62 | O=C(CCCN1CCC(CO)(c2ccc(Cl)cc2)C1)c1ccc(F)cc1 (configuration not stated) |
|  | 7.82 | O=C(CCCN1CCC(c2ccc(Cl)cc2)C1)c1ccc(F)cc1 (configuration not stated) |
